Common to all, as to type: binding
One experiment deals with T1, LCK (Homo sapiens, UniProt P06239).
T1 construct: the DNA-tagged SH2 domain concentrations used in this study were <0.1 nM; made in house; host or cells: HEK293 (transient transfection, unpurified extract)
The experiment can be described thus: biochemical.

The target of the next experiment is T2, PLCG1(SH2dom.N-term.) (Homo sapiens, UniProt P19174).
T2 construct: SH2dom.N-term. denotes SH2 domain closest to N-terminus of protein; made in house; host or cells: HEK293 (transient transfection, unpurified extract)
T2 sequence (P19174 550-657 limits assumed): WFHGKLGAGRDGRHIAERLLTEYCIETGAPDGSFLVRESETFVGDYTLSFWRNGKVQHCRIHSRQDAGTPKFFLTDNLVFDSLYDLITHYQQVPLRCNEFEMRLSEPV
Put plainly: biochemical. Conditions: for remaining activity at 10 µM: read-out: percent of DMSO vehicle control.

For another experiment, the target named is T3, SHC4 (Homo sapiens, UniProt Q6S5L8).
T3 construct: made in house; host or cells: HEK293 (transient transfection), unpurified extract
T3 sequence (Q6S5L8 1-630): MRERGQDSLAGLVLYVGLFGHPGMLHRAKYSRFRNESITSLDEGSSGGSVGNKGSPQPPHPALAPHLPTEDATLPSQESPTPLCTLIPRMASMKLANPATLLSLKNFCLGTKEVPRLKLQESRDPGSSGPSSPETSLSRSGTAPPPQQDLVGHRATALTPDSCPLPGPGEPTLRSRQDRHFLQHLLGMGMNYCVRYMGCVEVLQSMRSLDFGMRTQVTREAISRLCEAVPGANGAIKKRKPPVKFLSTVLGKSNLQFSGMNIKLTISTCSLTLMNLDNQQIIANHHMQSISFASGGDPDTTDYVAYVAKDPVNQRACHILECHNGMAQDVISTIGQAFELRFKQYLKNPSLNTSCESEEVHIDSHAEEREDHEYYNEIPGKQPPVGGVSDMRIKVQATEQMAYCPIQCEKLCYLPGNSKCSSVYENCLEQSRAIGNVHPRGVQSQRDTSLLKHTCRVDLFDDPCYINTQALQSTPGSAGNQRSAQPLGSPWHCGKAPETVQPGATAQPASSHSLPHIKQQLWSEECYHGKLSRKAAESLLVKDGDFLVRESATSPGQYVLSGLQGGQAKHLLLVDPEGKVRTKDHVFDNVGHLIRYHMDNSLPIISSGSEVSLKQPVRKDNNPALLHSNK
The experiment can be described thus: biochemical. Conditions: for remaining activity at 10 µM: read-out: percent of DMSO vehicle control.

The target in a further experiment is T4, CISH (Homo sapiens, UniProt Q9NSE2).
T4 construct: the DNA-tagged SH2 domain concentrations used in this study were <0.1 nM; made in house; host or cells: HEK293 (transient transfection; unpurified extract)
T4 sequence (Q9NSE2 82-163 limits assumed): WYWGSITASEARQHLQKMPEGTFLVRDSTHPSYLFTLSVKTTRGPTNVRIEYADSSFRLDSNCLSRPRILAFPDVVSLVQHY
The experiment can be described thus: biochemical. Conditions: for remaining activity at 10 µM: read-out: percent of DMSO vehicle control.

The next experiment has as its target T5, PTPN11(SH2dom.C-term.) (Homo sapiens, UniProt Q06124).
T5 construct: SH2dom.C-term. denotes SH2 domain closest to C-terminus of protein; made in house; host or cells: HEK293 (transient transfection, unpurified extract)
T5 sequence (Q06124 112-216 limits assumed): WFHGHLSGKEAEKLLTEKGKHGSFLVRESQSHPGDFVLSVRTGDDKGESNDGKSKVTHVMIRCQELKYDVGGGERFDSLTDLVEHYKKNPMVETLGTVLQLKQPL
Put plainly: biochemical. Particulars: primary screen, 10 μM.

Another experiment deals with T6, PTPN11(SH2dom.N-term.) (Homo sapiens, UniProt Q06124).
T6 construct: SH2dom.N-term. denotes SH2 domain closest to N-terminus of protein; made in house; host or cells: HEK293 (transient transfection, unpurified extract)
T6 sequence (Q06124 6-102 limits assumed): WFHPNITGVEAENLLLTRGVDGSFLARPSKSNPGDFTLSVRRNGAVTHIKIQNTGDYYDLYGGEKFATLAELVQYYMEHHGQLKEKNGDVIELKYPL
Particulars: primary screen, 10 μM.

The next experiment deals with T7, STAT3 (Homo sapiens, UniProt P40763).
T7 construct: made in house; host or cells: HEK293 (transient transfection), unpurified extract
Put plainly: biochemical.

In experiment [1] the target is T8, STAT3(D661Y)-nonphosphorylated (Homo sapiens, UniProt P40763, D661Y).
T8 construct: made in house; host or cells: HEK293 (transient transfection), unpurified extract, dephosphorylated by endogenous phosphatases
The experiment can be described thus: biochemical.

Experiment [2] concerns the target T9, STAT3(E616del)-nonphosphorylated (Homo sapiens, UniProt P40763, DEL616-616).
T9 construct: made in house; host or cells: HEK293 (transient transfection), unpurified extract, dephosphorylated by endogenous phosphatases
The experiment can be described thus: biochemical.

Experiment [3] addresses T10, STAT3(N567K)-nonphosphorylated (Homo sapiens, UniProt P40763, N567K).
T10 construct: made in house; host or cells: HEK293 (transient transfection), unpurified extract, dephosphorylated by endogenous phosphatases
Put plainly: biochemical.

For experiment [4], the target named is T11, STAT3(N647I)-nonphosphorylated (Homo sapiens, UniProt P40763, N647I).
T11 construct: made in house; host or cells: HEK293 (transient transfection), unpurified extract, dephosphorylated by endogenous phosphatases
The experiment can be described thus: biochemical.

Experiment [5] deals with T12, STAT3(S614R)-nonphosphorylated (Homo sapiens, UniProt P40763, S614R).
T12 construct: made in house; host or cells: HEK293 (transient transfection), unpurified extract, dephosphorylated by endogenous phosphatases
The experiment can be described thus: biochemical.

The target in a further experiment is T13, STAT5A (Homo sapiens, UniProt P42229).
T13 construct: made in house; host or cells: HEK293 (transient transfection), unpurified extract
T13 sequence (P42229 1-794): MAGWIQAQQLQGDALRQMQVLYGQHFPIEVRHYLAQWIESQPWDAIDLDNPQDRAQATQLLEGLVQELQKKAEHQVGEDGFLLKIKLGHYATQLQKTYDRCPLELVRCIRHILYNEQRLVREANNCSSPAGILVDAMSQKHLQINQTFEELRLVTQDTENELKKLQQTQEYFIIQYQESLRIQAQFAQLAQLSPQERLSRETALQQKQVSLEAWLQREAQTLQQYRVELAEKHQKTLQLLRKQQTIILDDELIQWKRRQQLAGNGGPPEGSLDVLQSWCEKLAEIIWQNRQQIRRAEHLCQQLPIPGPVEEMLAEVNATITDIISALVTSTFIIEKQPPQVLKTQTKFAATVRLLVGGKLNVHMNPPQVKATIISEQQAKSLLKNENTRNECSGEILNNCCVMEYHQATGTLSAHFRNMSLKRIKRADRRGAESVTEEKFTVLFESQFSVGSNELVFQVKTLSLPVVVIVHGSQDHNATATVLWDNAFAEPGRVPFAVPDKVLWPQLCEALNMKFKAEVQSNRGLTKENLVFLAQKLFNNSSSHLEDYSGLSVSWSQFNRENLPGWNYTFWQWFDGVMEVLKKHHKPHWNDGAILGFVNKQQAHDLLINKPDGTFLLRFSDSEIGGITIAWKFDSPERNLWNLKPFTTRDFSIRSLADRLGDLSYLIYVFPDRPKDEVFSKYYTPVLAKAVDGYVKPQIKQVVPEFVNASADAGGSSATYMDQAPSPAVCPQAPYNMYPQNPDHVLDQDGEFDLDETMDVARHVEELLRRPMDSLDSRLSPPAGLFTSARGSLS
Put plainly: biochemical.

The mark [6] stands for this setting: primary screen, 10 μM, read-out: percent of DMSO vehicle control.
Setting [7] is: read-out: percent of DMSO vehicle control.

One may read the Kd as the equilibrium constant for the complex coming apart.

Read-outs that look alike come from different tables or passages of the source. Non-standard residues stand in square brackets, D forms with d. Residues, ends and D or L forms follow the SMILES beside them. pY = N[C@@H](Cc1ccc(OP(=O)(O)O)cc1)C(=O)O

On to `CC[C@H](C)[C@H](NC(=O)[C@H](CCC(=O)O)NC(=O)[C@H](CCC(=O)O)NC(=O)[C@H](Cc1ccc(OP(=O)(O)O)cc1)NC(C)=O)C(=O)N[C@@H](CCC(=O)O)C(N)=O` [Ac-pYEEIE-NH2] (Ac-[pY]EEIE-NH2), for which the “percent of DMSO vehicle control” value on LCK (primary screen, 10 μM) is on record as 44.2±3.3%; at PLCG1(SH2dom.N-term.) (primary screen, 10 μM), 42.1%; on SHC4 (primary screen, 10 μM), 119.5%; on CISH (primary screen, 10 μM) it was 131.9%; on PTPN11(SH2dom.C-term.), 133.6%; on PTPN11(SH2dom.N-term.), 116.6%. Besides, the “percent of DMSO vehicle control” value on STAT3 (primary screen, 10 μM) amounted to 151.4%; in [1] (primary screen, 10 μM) it was 91.4±3.8%; in experiment [2] (primary screen, 10 μM) it was 86.7±0.4%; in [3] (primary screen, 10 μM), 94.9±0.8%; in [4] (primary screen, 10 μM) it was 97.9±8.6%; in [5] (primary screen, 10 μM), 96.3±8.9%. At STAT5A (primary screen, 10 μM), the “percent of DMSO vehicle control” value is reported as 94.4±4.9%.

In the case of `O=C(CCl)Nc1cccc(CNC(=O)[C@H](Cc2ccc(OP(=O)(O)O)cc2)NC(=O)Cc2ccc(F)cc2)c1` [MN551], the remaining activity at 10 µM at LCK (setting [6]) was 98.7 ± 0.5%; on PLCG1(SH2dom.N-term.) (primary screen, 10 μM) it was 62.8 ± 3.8%; on SHC4 (primary screen, 10 μM), 93 ± 4.4%; on CISH (primary screen, 10 μM), 3.2 ± 4.3%; on STAT3 (setting [6]) it was 67.8%; in [1] (setting [6]), 171%. The remaining activity at 10 µM in experiment [2] (setting [6]) was found to be 203%; in [3] (setting [6]) it was 86.5 ± 6.2%; in [4] (setting [6]), 81.2%; in [5] (setting [6]), 95.7 ± 8.1%; at STAT5A (setting [6]), 39 ± 0.8%. On CISH (dose-response, read-out: KD), the Kd came to 46 nM. In addition, the “percent of DMSO vehicle control” value on PTPN11(SH2dom.C-term.) is recorded as 125.6%; on PTPN11(SH2dom.N-term.), 85.0±0.9%.

Consider `CC(=O)N[C@@H](Cc1ccc(CP(=O)(O)O)cc1)C(=O)NC1(C(=O)N[C@@H](CC(N)=O)C(=O)NCCCc2c(O)ccc3ccccc23)CCCCC1` [CGP78850], for which the percent of DMSO vehicle control at 10 µM on LCK (setting [7]) was 46 ± 3.7%; at STAT3 (setting [7]), 80.9 ± 6.4%; in [1] (setting [7]) it was 97.4 ± 6.3%; in [2] (setting [7]) it was 71.8 ± 6.4%; in experiment [3] (setting [7]), 78.3 ± 2%; in experiment [4] (setting [7]) it was 80.6 ± 2.9%. In addition, the results for the percent of DMSO vehicle control at 10 µM (in experiment [5] (setting [7]); at STAT5A (setting [7])) were 82.4 ± 3.2% and 84.9 ± 21%, respectively. Besides, the remaining activity at 10 µM at PLCG1(SH2dom.N-term.) is 109 ± 14.6%; on SHC4 it was 108 ± 7.4%; on CISH, 117 ± 15.1%. Besides, the “percent of DMSO vehicle control” value at PTPN11(SH2dom.C-term.) is reported as 127.5±18.4%; at PTPN11(SH2dom.N-term.), 125.2±9.1%.

(Values after PMC12951562, “SH2scan: Mapping SH2 Domain-Ligand Binding Selectivity for Inhibitors and Degraders” (Journal of Medicinal Chemistry, 2026).)
